Results taken from publication PMC9785606, “Design and Synthesis of Novel Phenylahistin Derivatives Based on Co-Crystal Structures as Potent Microtubule Inhibitors for Anti-Cancer Therapy” (Marine Drugs, 2022).
Marks after values point to notes of the source that are not given here. Blank lines part the entries; values can stand above or below the compound they belong to.

Columns and labels:
[1] = test system: human lung cancer NCI-H460 cell line; experiment: MTT cytotoxicity assay, lung cancer NCI-H460 cell line; type: cell-based; settings: mean ± SD
Procedure: (§1) Human cancer cell lines (lung cancer NCI-H460 cell line, pancreatic cancer BxPC-3 cell line, colon cancer HT-29 cell line) were purchased from American Type Cell Culture Collection (ATCC, Manassas, VA, USA). Cells were maintained in RPMI-1640 medium supplemented with 10% (v/v) heat-inactivated fetal bovine serum, penicillin-streptomycin (100 U/mL-100 […]) at 37 °C in a humidified atmosphere (5% CO2–95% air). All tested derivatives were dissolved in 100% cell culture grade DMSO. Cells (3 × 10^3 per well) were seeded in 96-well plates for 24 h. Then, cells were treated with the tested compounds in six concentrations for 72 h. Cell viability was assessed by MTT assay. The absorbance at 490 nm was measured with a Microplate Reader (Molecular Devices, Silicon Valley, CA, USA). The data were analyzed by Origin 8.5 (OriginLab, Northampton, MA, USA).

[2] = test system: pancreatic cancer BxPC-3 cell line; experiment: MTT cytotoxicity assay, pancreatic cancer BxPC-3 cell line; type: cell-based; settings: Homo sapiens, 72 h, mean ± SD
Procedure: as §1

[3] = test system: colon cancer HT-29 cell line; experiment: MTT cytotoxicity assay, colon cancer HT-29 cell line; type: cell-based; settings: Homo sapiens, 72 h, mean ± SD
Procedure: as §1

[4] = test system: H22 hepatoma carcinoma cells transplanted tumor; experiment: H22 subcutaneous transplanted tumor model, intravenous administration; settings: for Tumor Volume (D15): 14 consecutive days; for Tumor Volume (D1): D1 (baseline), mean ± SD; for Tumor Weight: excised at end of administration; for IR (tumor weight inhibition rate): IR = (1 − TWt/TWc) × 100%
Procedure: The anticancer effect of the compound 15p was further evaluated against H22 tumor-bearing mice models by intravenous injection at doses of 2 mg/kg, or 4 mg/kg, two or three times a week, and for 14 consecutive days. Docetaxel (10 mg/kg), plinabulin (4 mg/kg), and cyclophosphamide (20 mg/kg) were used as the positive controls.
Balb/c mice (4–6 weeks old, 16–18 g) were purchased from Shanghai Sippr-BK laboratory animal Co. Ltd. The animal study protocol was approved by Institutional Review Board of Science and Technology Division of Linyi University (review opinion on behalf of the Ethics Committee) (The protocol code is LYU20220107, provided on 10 March 2022). H22 cells were grown in RPMI-1640 midium supplemented with 10% fetal bovine serum, and maintained at 37 °C in humidified 5% CO2. Cells were passaged when they reached 70–80% confluence. Viable H22 cells (1 × 10^7 cells/0.2 ml 0.9% sodium chloride) were injected into the peritoneal cavity of BALB/C mice to trigger ascitic cell growth. Later, cells were harvested and suspended. H22 cancer cells (2 × 10^7 cells/0.1 ml 0.9% sodium chloride cells) were subcutaneously injected into the right flank of each mouse. After implantation, the tumor size was measured with an electronic caliper twice a week, and the tumor volume was calculated according to the following formula: tumor volume (mm^3) = 0.5 × length × width^2. When the tumor volume reached about 130 mm^3, the xenograft tumor-bearing BALB/C mice were randomly placed into six groups at 10 mice per group: vehicle, plinabulin (4 mg/kg), 15p ([…]), 15p ([…]), cyclophosphamide (20 mg/kg) and docetaxel (10 mg/kg) groups. Docetaxel, plinabulin, and cyclophosphamide were chosen as positive control drug. The reference compound docetaxel and cyclophosphamide were completely dissolved in isotonic saline. […] The solution of compound 15p was diluted with the concentrated solution and in isotonic saline at a calculated ratio. The solutions of plinabulin were made up according to similar methods. The mice received intravenous administration (iv) every two or three days for consecutive 14 days. The tumor volumes and the body weights were recorded every two or three days after treatment. At the end of the administration period, the animals were euthanized by dislocation, and the tumor bulks were peeled off conforming to the Guide for the Animal use and Management of Shanghai Medicilon Biological Medicine Co. Ltd. The tumor volume was calculated according to the Principles of Non-clinical Research Techniques for Anti-tumor Drugs of Cytotoxic Drugs by China Food and Drug Administration.

[5] = test system: microtubules in NCI-H460 cells; experiment: Immunofluorescence assay of microtubules (β-tubulin/DAPI staining); type: cell-based, human; settings: 24 h
Procedure: To further explore the effect of phenylahistin derivatives 1 and 15p on microtubules in cancer cells, an immunofluorescence assay was performed. […] The inhibitory activities were consistent with the previously shown anti-proliferative activities.
NCI-H460 cells were seeded in 24-well plate (with coverslips plated) at the density of 5 × 10^4 cells. […] Then, cells were fixed with 4% cold paraformaldehyde at 4 °C for 15 min and then permeabilized in 0.05% Triton X-100 for 10 min. The cells were blocked in 1% BSA for 30 min. Microtubules were detected by incubation with a monoclonal anti-β-tubulin (β-tubulin antibody was obtained from Servicebio, Wuhan, China.) at 4 °C for 12 h. Subsequently, the cells were washed with PBS and incubated with a FITC-conjugated anti-mouse IgG antibody. Nuclei were stained with DAPI (G1012, Servicebio, Wuhan, China). The coverslips were visualized under fluorescence microscope (Nikon Eclipse C1, Nikon, Japan) and an image-forming system (Nikon DS-U3, Nikon, Tokyo, Japan).

[6] = 20 mg/kg iv, listed as cyclophosphamide
[7] = 10 mg/kg iv, listed as docetaxel
[8] = 4 mg/kg iv, listed as plinabulin

SMILES: Cc1c(/C=c2\[nH]c(=O)/c(=C/c3cccc(C(=O)c4ccc(F)cc4)c3)[nH]c2=O)ncn1C [15a]
melting point: 224 to 226 °C | IC50 ([1]; 72 h): 21.1 ± 1.3 nM | IC50 ([1]; Homo sapiens, NCI-H460, 72 h): 21.1 nM

SMILES: CC(C)c1c(/C=c2\[nH]c(=O)/c(=C/c3cccc(Oc4ccc(F)cc4)c3)[nH]c2=O)ncn1C [15b]
melting point: 218 to 219 °C | IC50 ([1]; Homo sapiens, NCI-H460, 72 h): 40.4 ± 0.82 nM

SMILES: CC(C)c1c(/C=c2\[nH]c(=O)/c(=C/c3cccc(C(=O)c4ccc(F)cc4)c3)[nH]c2=O)ncn1C [15c]
melting point: 225 to 227 °C | IC50 ([1]; Homo sapiens, NCI-H460, 72 h): 3.65 ± 0.18 nM

SMILES: CCn1cnc(/C=c2\[nH]c(=O)/c(=C/c3cccc(C(=O)c4ccc(F)cc4)c3)[nH]c2=O)c1C [15d]
melting point: 227 to 229 °C | IC50 ([1]; Homo sapiens, NCI-H460, 72 h): 16.9 ± 1.5 nM

SMILES: CCn1cnc(/C=c2\[nH]c(=O)/c(=C/c3cccc(Oc4ccc(F)cc4)c3)[nH]c2=O)c1C(C)C [15e]
melting point: 195 to 198 °C | IC50 ([1]; Homo sapiens, NCI-H460, 72 h): 12.2 ± 0.27 nM

SMILES: CCn1cnc(/C=c2\[nH]c(=O)/c(=C/c3cccc(C(=O)c4ccc(F)cc4)c3)[nH]c2=O)c1C(C)C [15f]
melting point: 234 to 236 °C | IC50 ([1]; Homo sapiens, NCI-H460, 72 h): 2.01 ± 0.19 nM

SMILES: CCCn1cnc(/C=c2\[nH]c(=O)/c(=C/c3cccc(C(=O)c4ccc(F)cc4)c3)[nH]c2=O)c1C [15g]
melting point: 214 to 216 °C | IC50 ([1]; Homo sapiens, NCI-H460, 72 h): 4.93 ± 0.25 nM

SMILES: O=P1(N(CCCl)CCCl)NCCCO1 (stereo not shown) [Cyclophosphamide]
Body weight compared to the control group ([4]; 20 mg/kg iv): decreased the body weights | Tumor Volume (D15) ([4]; 20 mg/kg iv): 687.2 ± 288.6* mm^3 | Tumor Volume (D15) [4, 6]: 687.2 mm^3 | Tumor Volume (D1) ([4]; 20 mg/kg iv): 105.1 ± 30.26 mm^3 | Tumor Weight ([4]; 20 mg/kg iv): 0.42 ± 0.24 g | Tumor Weight [4, 6]: 0.42 g | IR (tumor weight inhibition rate) ([4]; 20 mg/kg iv): 62.6%

SMILES: CC(=O)O[C@@]12CO[C@@H]1C[C@H](O)[C@@]1(C)C(=O)[C@H](O)C3=C(C)[C@@H](OC(=O)[C@H](O)[C@@H](NC(=O)OC(C)(C)C)c4ccccc4)C[C@@](O)([C@@H](OC(=O)c4ccccc4)[C@H]21)C3(C)C [Docetaxel]
Tumor Volume (D15) ([4]; 10 mg/kg iv): 903.6 ± 421.7* mm^3 | Tumor Volume (D15) [4, 7]: 903.6 mm^3 | Tumor Volume (D1) ([4]; 10 mg/kg iv): 103.6 ± 30.75 mm^3 | Tumor Weight ([4]; 10 mg/kg iv): 0.55 ± 0.22 g | Tumor Weight [4, 7]: 0.55 g | IR (tumor weight inhibition rate) ([4]; 10 mg/kg iv): 51.6%

SMILES: CC(C)(C)c1[nH]cnc1/C=c1\[nH]c(=O)/c(=C/c2ccccc2)[nH]c1=O [Plinabulin]
IC50 [2]: 5.8 ± 0.2 nM | Tumor Volume (D15) ([4]; 4 mg/kg iv): 1425.3 ± 411.2 mm^3 | Tumor Volume (D15) [4, 8]: 1425.3 mm^3 | Tumor Volume (D1) ([4]; 4 mg/kg iv): 104.7 ± 26.66 mm^3 | Tumor Weight ([4]; 4 mg/kg iv): 0.77 ± 0.31 g | Tumor Weight [4, 8]: 0.77 g | IR (tumor weight inhibition rate) ([4]; 4 mg/kg iv): 31.9% | IC50 [3]: 6.6 ± 1.6 nM | Effect on microtubule networks ([5]; 10 nM): microtubule networks were damaged | IC50 ([1]; Homo sapiens, NCI-H460, 72 h): 26.2 ± 3.2 nM

SMILES: CC(C)(C)c1[nH]cnc1/C=c1\[nH]c(=O)/c(=C/c2cccc(C(=O)c3ccc(F)cc3)c2)[nH]c1=O [compound 1]
Effect on microtubule networks ([5]; 2 nM): microtubule networks were damaged

Second part, led by results:

melting point: 201 to 203 °C
SMILES: CCCn1cnc(/C=c2\[nH]c(=O)/c(=C/c3cccc(Oc4ccc(F)cc4)c3)[nH]c2=O)c1C(C)C [15h]
IC50 ([1]; Homo sapiens, NCI-H460, 72 h): 5.4 ± 0.15 nM

melting point: 200 to 202 °C
SMILES: CCCn1cnc(/C=c2\[nH]c(=O)/c(=C/c3cccc(C(=O)c4ccc(F)cc4)c3)[nH]c2=O)c1C(C)C [15i]
IC50 ([1]; Homo sapiens, NCI-H460, 72 h): 1.67 ± 0.15 nM

melting point: 198 to 201 °C
SMILES: CCCCn1cnc(/C=c2\[nH]c(=O)/c(=C/c3cccc(C(=O)c4ccc(F)cc4)c3)[nH]c2=O)c1C(C)C [15k]
IC50 ([1]; Homo sapiens, NCI-H460, 72 h): 0.94 ± 0.11 nM

melting point: 189 to 191 °C
SMILES: Cc1c(/C=c2\[nH]c(=O)/c(=C/c3cccc(C(=O)c4ccc(F)cc4)c3)[nH]c2=O)ncn1CCNC(=O)OC(C)(C)C [15l]
IC50 ([1]; Homo sapiens, NCI-H460, 72 h): 105 ± 11.7 nM

melting point: 204 to 206 °C
SMILES: CC(C)c1c(/C=c2\[nH]c(=O)/c(=C/c3cccc(C(=O)c4ccc(F)cc4)c3)[nH]c2=O)ncn1CCNC(=O)OC(C)(C)C [15m]
IC50 ([1]; Homo sapiens, NCI-H460, 72 h): 27.3 ± 1.32 nM

melting point: 206 to 208 °C
SMILES: Cc1c(/C=c2\[nH]c(=O)/c(=C/c3cccc(C(=O)c4ccc(F)cc4)c3)[nH]c2=O)ncn1CCCNC(=O)OC(C)(C)C [15n]
IC50 ([1]; Homo sapiens, NCI-H460, 72 h): 145.7 ± 0.27 nM

melting point: 179 to 180 °C
SMILES: CC(C)c1c(/C=c2\[nH]c(=O)/c(=C/c3cccc(C(=O)c4ccc(F)cc4)c3)[nH]c2=O)ncn1CCCNC(=O)OC(C)(C)C [15o]
IC50 ([1]; Homo sapiens, NCI-H460, 72 h): 12.7 ± 0.71 nM

melting point: 150 to 152 °C
SMILES: C#CCn1cnc(/C=c2\[nH]c(=O)/c(=C/c3cccc(C(=O)c4ccc(F)cc4)c3)[nH]c2=O)c1C(C)C [15q]
IC50 [2]: 1.15 ± 0.042 nM | IC50 [3]: 0.67 ± 0.035 nM | IC50 ([1]; Homo sapiens, NCI-H460, 72 h): 1.49 ± 0.31 nM

melting point: 180 to 182 °C
SMILES: Cc1c(/C=c2\[nH]c(=O)/c(=C/c3cccc(C(=O)c4ccc(F)cc4)c3)[nH]c2=O)ncn1CCN [16a]
IC50 ([1]; Homo sapiens, NCI-H460, 72 h): 33.4 ± 9.59 nM

melting point: 190 to 192 °C
SMILES: CC(C)c1c(/C=c2\[nH]c(=O)/c(=C/c3cccc(C(=O)c4ccc(F)cc4)c3)[nH]c2=O)ncn1CCN [16b]
IC50 [2]: 3.27 ± 0.09 nM | IC50 [3]: 5.92 ± 0.39 nM | IC50 ([1]; 72 h): 11.3 ± 3.45 nM | IC50 ([1]; Homo sapiens, NCI-H460, 72 h): 11.3 nM

melting point: 247 to 248 °C
SMILES: Cc1c(/C=c2\[nH]c(=O)/c(=C/c3cccc(C(=O)c4ccc(F)cc4)c3)[nH]c2=O)ncn1CCCN [16c]
IC50 ([1]; Homo sapiens, NCI-H460, 72 h): 103 ± 11.7 nM

melting point: 199 to 201 °C
SMILES: CC(C)c1c(/C=c2\[nH]c(=O)/c(=C/c3cccc(C(=O)c4ccc(F)cc4)c3)[nH]c2=O)ncn1CCCN [16d]
IC50 [2]: 2.35 ± 1.75 nM | IC50 [3]: 2.45 ± 0.42 nM | IC50 ([1]; Homo sapiens, NCI-H460, 72 h): 5.38 ± 1.46 nM
